Columns and labels:
[1] = xn = mol fraction of the nth substance listed; settings: 98 kPa, Liquid; for speed of sound: Frequency=3 MHz, Single path-length method; for mass density: Vibrating tube method
[2] = excess molar enthalpy (molar enthalpy of mixing); xn = mol fraction of the nth substance listed; settings: 298.15 K, 98 kPa, Liquid, Calvet calorimetry

Cn1ccnc1 [1-methylimidazole] + CCO
[1]
Settings	mass density, 288.15 K [kg/m3]	mass density, 298.15 K [kg/m3]	mass density, 308.15 K [kg/m3]	mass density, 318.15 K [kg/m3]	mass density, 328.15 K [kg/m3]	speed of sound, 288.15 K [m/s]	speed of sound, 298.15 K [m/s]	speed of sound, 308.15 K [m/s]	speed of sound, 318.15 K [m/s]	speed of sound, 328.15 K [m/s]
x1 = 0.0511	812.59	803.97	795.24	786.37	777.3	1210.6	1176.2	1141.9	1108	1074.3
x1 = 0.1012	829.84	821.16	812.37	803.49	794.35	1240.8	1206.2	1171.7	1137.5	1103.7
x1 = 0.2006	861.64	852.87	844	835.02	825.9	1296.9	1261.9	1227	1192.5	1158.3
x1 = 0.3012	891.28	882.45	873.53	864.53	855.41	1350	1314.7	1279.5	1244.6	1210.1
x1 = 0.3955	916.81	907.94	899	889.99	880.88	1396.8	1361.2	1325.7	1290.5	1255.7
x1 = 0.5	942.71	933.82	924.87	915.86	906.77	1445.7	1409.8	1373.8	1338.3	1303
x1 = 0.5994	965.25	956.36	947.41	938.4	929.34	1489.5	1453	1416.7	1380.7	1345.1
x1 = 0.7066	987.5	978.61	969.67	960.68	951.65	1533	1496.1	1459.3	1423	1386.9
x1 = 0.8063	1006.58	997.7	988.78	979.82	970.81	1570.7	1533.5	1496.3	1459.6	1423.3
x1 = 0.902	1023.35	1014.49	1005.59	996.65	987.68	1603.2	1565.8	1528.4	1491.4	1454.8
x1 = 0.9505	1031.47	1022.63	1013.75	1004.83	995.88	1619	1581.5	1544	1507	1470.2
x1 = 1	1039.36	1030.52	1021.66	1012.76	1003.83	1634.1	1596.5	1559	1521.8	1485

[2]
Settings	excess molar enthalpy [kcal/mol]
x1 = 0.0523	-0.0449
x1 = 0.1012	-0.0853
x1 = 0.2013	-0.15
x1 = 0.3057	-0.194
x1 = 0.4037	-0.23
x1 = 0.5087	-0.239
x1 = 0.5987	-0.199
x1 = 0.7146	-0.152
x1 = 0.8003	-0.105
x1 = 0.8861	-0.0619
x1 = 0.9463	-0.0344
x1 = 1	0
